Test results taken from publication PMC8537988, “Re-Use of Caco-2 Monolayers in Permeability Assays—Validation Regarding Cell Monolayer Integrity” (Pharmaceutics, 2021).

Test system: Caco-2 monolayers
Test: Apical to basolateral permeability of LY through Caco-2 monolayers (Transwell, 12-well)
Assay type: in vitro ADME, human
Conditions: for LY Papp, µ best fit of Normal distribution to Papp / LY Papp, µ directly from Papp: single sampling at 60 min
Procedure: Caco-2 cells culture and monolayers preparation was as described in the reference protocol. Cells were maintained in T75 cm^2 flasks in culture medium (DMEM supplemented with 1% (v/v) NEAA, 10% (v/v) heat-inactivated FBS), in a humidified atmosphere of 5% CO2 at 37 °C. As recommended in the reference protocol, the permeability assays were performed using cells in passages 95–105. The cells were thawed on passage 89 and sub-cultured twice a week at or shortly before 90% confluency by a 1:8 split. To avoid seeding aggregated cells and the formation of multilayers in Transwell™ inserts, the cell clusters were disaggregated into single cells by passing them 3 times through a syringe needle of 23 gauges (BD Falcon) before cell counting. Caco-2 cells were seeded at 2.6 × 10^5 cells/cm^2 on 12-well polycarbonate filter inserts. The culture medium (with 1% (v/v) Pen/Strep) was replaced by fresh medium 6 h following seeding and then every 2–3 days thereafter until transport experiments.
The reference protocol was followed in the permeability assays, with slight modifications as required by the new experimental approach. Manipulation of the cell monolayers was conducted under sterile conditions (in the laminar flow hood or incubator). At the day of the experiments, the culture medium was removed and HBSS (further supplemented with 25 mM HEPES, 0.35 g/L sodium bicarbonate, pH 7.4) pre-warmed to 37 °C was added to the donor (0.5 mL) and receiver (1.5 mL) sides to wash the cell monolayers. The plate containing the inserts was placed (lid-covered) in an incubator without CO2 at 37 °C with an orbital shaker (IKA-Schüttler MTS4, JMGS, Lisboa, Portugal) at 50 rpm for 8 min. The washing step was repeated with new HBSS. The TEER was measured in HBSS at 37 °C using a Millicell® ERS-2 voltmeter equipped with a chopstick electrode pair (Merck, Lisboa, Portugal). A filter insert without cells was included in each set of experiments for correction of the TEER value for the background resistance. The resistance values (Ω cm^2) of the cell monolayers were obtained by subtracting the TEER value from blank inserts and multiplying by the surface area of the insert. All cell monolayers presented TEER values above 200 Ω cm^2. At least one insert of the set was fixed and stained for confocal microscopy analysis (see next section). The remaining ones were used to perform the apical to basolateral permeability assays with the paracellular marker LY. For this, the donor HBSS washing solution was decanted, and the inserts were placed into empty wells of a fresh 12-well plate. The permeability assay was initiated with the addition of 450 µL of the LY solution (20 µM in HBSS at 37 °C) simultaneously to the donor compartments of 3 to 4 insert, from which a 50 µL aliquot was immediately collected and stored for the calculation of the solute concentration in the donor compartment at t = 0. The inserts containing the LY solution were subsequently positioned in a pre-prepared 12-well plate containing HBSS (1.2 mL per well), and the lid-covered plate was placed on the incubator (without CO2, 50 rpm and 37 °C). At the defined sampling times, the plate was positioned into the laminar flow hood and the inserts were transferred into new wells containing fresh HBSS. The high fluorescence quantum yield of LY allows its detection by […], even for the very small amount expected to permeate during short permeation intervals. In this work we used 10, 20, 30, and 60 min or 60 min only as sampling times. At the end of the assay, inserts were transferred to empty wells and 50 µL was taken from the donor compartment for the calculation of the solute mass balance. The remaining solution was decanted, the inserts were placed on new wells containing 1.5 mL of pre-warm HBSS, and 0.5 mL of pre-warmed HBSS was added to each insert for TEER measurements. Some selected monolayers were prepared for microscopy; the remaining were incubated with culture media for re-use, as described below. […]

[1] = day 22, both sampling intervals (10 or 60 min)

## Lucifer yellow CH di-potassium salt [LY]
All days, all (88)
  LY Papp, µ best fit of Normal distribution to Papp: 1.9 10^-7 cm/s
  LY Papp, µ directly from Papp: 2.1 10^-7 cm/s
All days, re-use (41)
  LY Papp, µ best fit of Normal distribution to Papp: 1.6 10^-7 cm/s
  LY Papp, µ directly from Papp: 1.8 10^-7 cm/s
All days, single use & re-use, 1st 10 min (65)
  LY QA, µ from Log(QA): 0.18%
All days, single use & re-use, 1st 60 min (88)
  LY QA, µ from Log(QA): 0.20%
All days, single use & re-use, 2nd 10 min (66)
  LY QA, µ from Log(QA): 0.21%
All days, single use & re-use, 3rd 10 min (62)
  LY QA, µ from Log(QA): 0.25%
All days, single use & re-use, 4th 30 min (62)
  LY QA, µ from Log(QA): 0.35%
All days, single use & re-use, all 1st samplings (153)
  LY QA, µ from Log(QA): 0.19%
All days, single use & re-use, all samplings (346)
  LY QA, µ from Log(QA): 0.23%
All days, single use (47)
  LY Papp, µ best fit of Normal distribution to Papp: 2.1 10^-7 cm/s
  LY Papp, µ directly from Papp: 2.4 10^-7 cm/s
Day 22, all (35)
  LY Papp, µ best fit of Normal distribution to Papp: 2.0 10^-7 cm/s
  LY Papp, µ directly from Papp: 2.3 10^-7 cm/s
Day 22, batch 1, passage 95, single use, one-time sampling (60 min)
  QA (%), µ, LY transported during first sampling interval: 0.18%
Day 22, batch 1, passage 98, single use, multi-time sampling (10 min)
  QA (%), µ, LY transported during first sampling interval: 0.19%
Day 22, batch 1, passage 100, single use, multi-time sampling (10 min)
  QA (%), µ, LY transported during first sampling interval: 0.36%
Day 22, batch 1, passage 104, single use, multi-time sampling (10 min)
  QA (%), µ, LY transported during first sampling interval: 0.16%
Day 22, batch 1, passage 105, single use, multi-time sampling (10 min)
  QA (%), µ, LY transported during first sampling interval: 0.22%
Day 22, batch 2, passage 95, single use, one-time sampling (60 min)
  QA (%), µ, LY transported during first sampling interval: 0.27%
Day 22, batch 2, passage 98, single use, one-time sampling (60 min)
  QA (%), µ, LY transported during first sampling interval: 0.30%
Day 22, batch 3, passage 95, single use, one-time sampling (60 min)
  QA (%), µ, LY transported during first sampling interval: 0.19%
[1]
  LogQA, centre of Normal distribution: around −0.6
  QA, amount of LY that reaches the acceptor compartment: around 0.2%
Day 22, single use, 1st 10 min (27)
  LY QA, µ from Log(QA): 0.25%
Day 22, single use, 1st 60 min (35)
  LY QA, µ from Log(QA): 0.21%
Day 22, single use, 2nd 10 min (28)
  LY QA, µ from Log(QA): 0.29%
Day 22, single use, 3rd 10 min (26)
  LY QA, µ from Log(QA): 0.37%
Day 22, single use, 4th 30 min (28)
  LY QA, µ from Log(QA): 0.48%
Day 22, single use, all 1st samplings (62)
  LY QA, µ from Log(QA): 0.23%
Day 22, single use, all samplings (144)
  LY QA, µ from Log(QA): 0.30%
Day 25, all (29)
  LY Papp, µ best fit of Normal distribution to Papp: 1.7 10^-7 cm/s
  LY Papp, µ directly from Papp: 1.9 10^-7 cm/s
Day 25, batch 1, passage 95, re-use, one-time sampling (60 min)
  QA (%), µ, LY transported during first sampling interval: 0.21%
Day 25, batch 1, passage 95, single use, one-time sampling (60 min)
  QA (%), µ, LY transported during first sampling interval: 0.13%
Day 25, batch 1, passage 98, single use, multi-time sampling (10 min)
  QA (%), µ, LY transported during first sampling interval: 0.10%
Day 25, batch 1, passage 100, re-use, multi-time sampling (10 min)
  QA (%), µ, LY transported during first sampling interval: 0.25%
Day 25, batch 1, passage 104, single use, multi-time sampling (10 min)
  QA (%), µ, LY transported during first sampling interval: 0.14%
Day 25, batch 1, passage 105, re-use, multi-time sampling (10 min)
  QA (%), µ, LY transported during first sampling interval: 0.20%
Day 25, batch 2, passage 95, re-use, one-time sampling (60 min)
  QA (%), µ, LY transported during first sampling interval: 0.16%
Day 25, batch 2, passage 98, single use, one-time sampling (60 min)
  QA (%), µ, LY transported during first sampling interval: 0.25%
Day 25, batch 3, passage 95, re-use, one-time sampling (60 min)
  QA (%), µ, LY transported during first sampling interval: 0.19%
Day 25, re-use (23)
  LY Papp, µ best fit of Normal distribution to Papp: 1.7 10^-7 cm/s
  LY Papp, µ directly from Papp: 1.9 10^-7 cm/s
Day 25, re-use, 1st 10 min (16)
  LY QA, µ from Log(QA): 0.22%
Day 25, re-use, 1st 60 min (23)
  LY QA, µ from Log(QA): 0.18%
Day 25, re-use, 2nd 10 min (16)
  LY QA, µ from Log(QA): 0.28%
Day 25, re-use, 3rd 10 min (16)
  LY QA, µ from Log(QA): 0.27%
